{"source": "paper PMC2628638", "about": "“Catalytic inhibition of topoisomerase II by a novel rationally designed ATP-competitive purine analogue” (BMC Chemical Biology, 2009)", "key": {"[1]": {"test_system": "HCC1937 BRCA1 mutant and HCC1937 BRCA1 reconstituted cells", "test": "Clonogenic growth assay (WST-1, colony counting)", "type": "cell-based", "conditions": "continuous treatment for 9 days, WST-1 and colony numbers", "procedure": "HCC1937 BRCA1 mutant and HCC1937 BRCA1 reconstituted breast ductal carcinoma cells were cultured in RPMI-1640 medium supplemented with 10% fetal calf serum, 2 mM L-glutamine, 1 mM sodium pyruvate, 4.5 g/l glucose and 1% (v/v) penicillin/streptomycin. Status of BRCA1 was corroborated by immunoprecipitation using 50 μg nuclear extracts and 1 μg mouse monoclonal antibody MS110 (ab16780, Abcam Inc., Cambridge, MA), which is directed towards the amino-terminus of the protein. Blots were probed with BRCA1 carboxy-terminal specific mouse monoclonal antibody D9 (sc-6954, Santa Cruz Biotechnologies, Santa Cruz, CA) and, following stripping, re-probed with antibody MS110. For assays, 5000 cells in 3 ml medium were seeded per well of 6 well plates in duplicates. The day after, vehicle (DMSO) or compounds were added. After one week medium was exchanged and vehicle or compounds were re-added for an additional two days. To assess proliferation the medium in each well was replaced with 1 ml medium containing 100 μl WST-1 reagent and incubation for 20 minutes at 37°C. Of each sample 110 μl supernatant were transferred into a 96 well plate and the OD was read at 450 nm (filter at 630 nm) on a SpectraMax Plus microtiter plate reader using SoftMax Pro software (Molecular Devices). For background correction, the blank value consisted of 100 μl medium containing 10 μl WST-1. Thereafter, colonies were stained by removing medium, washing cells once with PBS and incubation with 1 ml crystal violet solution for 30 minutes at room temperature. Cells were washed twice with PBS and colonies were counted using an Artec Counter (Model 880, Artec, Dyntatech Laboratories Inc.) with diameter cut-off set to 0.2 mm. Data were expressed as growth or colony numbers relative to vehicle control treatments (100%)."}, "topoisomerase II beta": {"target": "T1, topoisomerase II beta (Homo sapiens, UniProt Q02880)", "T1 construct": "endogenous in cells; host or cells: HL-60 nuclear extract", "T1 sequence (Q02880 whole entry)": "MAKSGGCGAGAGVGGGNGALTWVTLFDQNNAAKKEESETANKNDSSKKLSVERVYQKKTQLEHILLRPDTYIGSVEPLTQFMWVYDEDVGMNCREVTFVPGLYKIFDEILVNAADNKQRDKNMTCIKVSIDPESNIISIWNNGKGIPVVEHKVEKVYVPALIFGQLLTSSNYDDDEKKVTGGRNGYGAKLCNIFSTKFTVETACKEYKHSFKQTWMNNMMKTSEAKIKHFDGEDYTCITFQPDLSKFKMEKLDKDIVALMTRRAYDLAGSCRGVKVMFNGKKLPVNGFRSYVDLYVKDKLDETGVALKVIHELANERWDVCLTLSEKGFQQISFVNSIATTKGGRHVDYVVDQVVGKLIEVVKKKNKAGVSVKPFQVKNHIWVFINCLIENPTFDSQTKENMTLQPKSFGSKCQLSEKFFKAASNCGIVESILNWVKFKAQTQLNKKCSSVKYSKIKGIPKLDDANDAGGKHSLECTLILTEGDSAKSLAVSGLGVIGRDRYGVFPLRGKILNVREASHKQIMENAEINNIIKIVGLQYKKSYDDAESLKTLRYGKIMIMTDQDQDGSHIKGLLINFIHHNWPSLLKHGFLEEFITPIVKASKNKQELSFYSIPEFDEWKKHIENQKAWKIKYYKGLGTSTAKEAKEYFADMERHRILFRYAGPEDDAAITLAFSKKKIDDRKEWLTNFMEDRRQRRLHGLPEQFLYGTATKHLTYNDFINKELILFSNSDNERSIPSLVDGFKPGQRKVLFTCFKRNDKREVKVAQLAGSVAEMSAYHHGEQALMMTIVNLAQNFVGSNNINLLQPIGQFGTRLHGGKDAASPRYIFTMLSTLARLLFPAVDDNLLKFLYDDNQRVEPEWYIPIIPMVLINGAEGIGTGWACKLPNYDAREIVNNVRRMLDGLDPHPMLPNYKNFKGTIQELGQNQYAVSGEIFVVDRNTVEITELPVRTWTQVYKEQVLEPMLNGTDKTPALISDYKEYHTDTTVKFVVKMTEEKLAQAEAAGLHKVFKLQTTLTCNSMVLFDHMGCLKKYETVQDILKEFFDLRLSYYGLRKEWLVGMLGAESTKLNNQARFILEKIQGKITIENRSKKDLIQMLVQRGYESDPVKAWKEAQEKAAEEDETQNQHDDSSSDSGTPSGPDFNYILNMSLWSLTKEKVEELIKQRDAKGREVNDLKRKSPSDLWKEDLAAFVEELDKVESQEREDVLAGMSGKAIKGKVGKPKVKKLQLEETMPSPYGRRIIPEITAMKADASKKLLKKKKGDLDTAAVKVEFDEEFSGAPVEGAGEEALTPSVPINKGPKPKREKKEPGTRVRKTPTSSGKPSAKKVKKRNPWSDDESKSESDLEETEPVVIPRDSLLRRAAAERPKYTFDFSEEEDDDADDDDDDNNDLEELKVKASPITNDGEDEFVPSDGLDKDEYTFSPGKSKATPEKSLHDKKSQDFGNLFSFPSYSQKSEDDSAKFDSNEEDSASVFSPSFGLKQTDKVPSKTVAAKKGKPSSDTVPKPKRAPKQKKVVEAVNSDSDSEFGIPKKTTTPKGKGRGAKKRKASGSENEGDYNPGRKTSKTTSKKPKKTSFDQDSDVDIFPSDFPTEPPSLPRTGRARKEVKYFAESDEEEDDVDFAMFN", "test": "Affinity precipitation with biotinylated purine analogue 2 from HL-60 nuclear extracts", "type": "binding", "conditions": "for competition of the interaction of biotinylated purine analogue 2 with topoisomerase II beta: 1 μM biotinylated analogue 2, competitor in excess (10 μM), QAP 1 also at equimolar concentration", "procedure": "(§1) Topoisomerase II α and β were affinity precipitated with biotinylated inhibitor as follows. Exponentially growing HL-60 cells were collected on ice and incubated with hypotonic buffer (10 mM HEPES pH 7.5, 1.5 mM MgCl2, 10 mM KCl, 0.5 mM DTT, 0.5 mM PMSF, 1× protease inhibitor cocktail (Complete Mini, Roche Diagnostics GmbH)) for 15 minutes, then 0.6% v/v NP-40 was added and cells were disrupted using a Dounce homogenizer. Lysates were transferred to 1.5 ml Protein LoBind Eppendorf tubes and nuclei were collected after centrifugation at 8000 rpm for 10 minutes and washed twice with hypotonic buffer. To extract and release chromatin associated topoisomerase II nuclei were incubated for 30 minutes in DNAse buffer (20 mM Tris HCl pH 7.5, 5 mM MgCl2, 1 mM CaCl2, 25 mM NaCl, 0.5 mM EDTA, 1% NP-40, 1 mM DTT, 1 × protease inhibitor cocktail, 0.1 mM PMSF) containing 40 U DNAse I (Roche Diagnostics GmbH) followed by addition of twice concentrated nuclear extraction buffer (20 mM HEPES pH 7.5, 3 mM MgCl2, 20 mM KCl, 50 mM β-glycerophosphate, 840 mM NaCl, 1 mM EDTA, 50 mM PNPP, 1 mM DTT, 1 mM PMSF) and rotation for 1 h in the coldroom. The soluble fraction was obtained following centrifugation at 13000 rpm for 15 minutes. 25 μg nuclear extract were used for the affinity precipitation. The salt concentration was adjusted to 150 mM with nuclear extraction buffer (without NaCl) and the sample volume was toped off to 200 μl with precipitation buffer (50 mM HEPES pH 7.4, 150 mM NaCl, 25 mM β-glycerophosphate, 25 mM NaF, 5 mM EGTA, 1 mM EDTA, 15 mM PPI, 1 mM PMSF). Compounds were preincubated for 30 minutes prior addition of biotinylated purine analogue 2 for 2 h. Streptavidin agarose beads (Novagen, 69203) were washed twice with PBS, blocked for 30 minutes with PBS containing 1% BSA, washed twice with PBS and finally with precipitation buffer. 40 μl equilibrated streptavidin agarose beads were added to the sample and incubation was continued for 1 h. Beads were pelleted by centrifugation at 7000 rpm for 5 minutes and washed thrice with precipitation buffer. During the last wash the beads were transferred to a new tube and the bound fraction was released by boiling for 5 minutes in Laemmli sample buffer. Topoisomerase II α and β were detected by Western blot as described below."}, "topoisomerase II alpha [2]": {"target": "T2, topoisomerase II alpha (Homo sapiens, UniProt P11388)", "T2 sequence (P11388 whole entry)": "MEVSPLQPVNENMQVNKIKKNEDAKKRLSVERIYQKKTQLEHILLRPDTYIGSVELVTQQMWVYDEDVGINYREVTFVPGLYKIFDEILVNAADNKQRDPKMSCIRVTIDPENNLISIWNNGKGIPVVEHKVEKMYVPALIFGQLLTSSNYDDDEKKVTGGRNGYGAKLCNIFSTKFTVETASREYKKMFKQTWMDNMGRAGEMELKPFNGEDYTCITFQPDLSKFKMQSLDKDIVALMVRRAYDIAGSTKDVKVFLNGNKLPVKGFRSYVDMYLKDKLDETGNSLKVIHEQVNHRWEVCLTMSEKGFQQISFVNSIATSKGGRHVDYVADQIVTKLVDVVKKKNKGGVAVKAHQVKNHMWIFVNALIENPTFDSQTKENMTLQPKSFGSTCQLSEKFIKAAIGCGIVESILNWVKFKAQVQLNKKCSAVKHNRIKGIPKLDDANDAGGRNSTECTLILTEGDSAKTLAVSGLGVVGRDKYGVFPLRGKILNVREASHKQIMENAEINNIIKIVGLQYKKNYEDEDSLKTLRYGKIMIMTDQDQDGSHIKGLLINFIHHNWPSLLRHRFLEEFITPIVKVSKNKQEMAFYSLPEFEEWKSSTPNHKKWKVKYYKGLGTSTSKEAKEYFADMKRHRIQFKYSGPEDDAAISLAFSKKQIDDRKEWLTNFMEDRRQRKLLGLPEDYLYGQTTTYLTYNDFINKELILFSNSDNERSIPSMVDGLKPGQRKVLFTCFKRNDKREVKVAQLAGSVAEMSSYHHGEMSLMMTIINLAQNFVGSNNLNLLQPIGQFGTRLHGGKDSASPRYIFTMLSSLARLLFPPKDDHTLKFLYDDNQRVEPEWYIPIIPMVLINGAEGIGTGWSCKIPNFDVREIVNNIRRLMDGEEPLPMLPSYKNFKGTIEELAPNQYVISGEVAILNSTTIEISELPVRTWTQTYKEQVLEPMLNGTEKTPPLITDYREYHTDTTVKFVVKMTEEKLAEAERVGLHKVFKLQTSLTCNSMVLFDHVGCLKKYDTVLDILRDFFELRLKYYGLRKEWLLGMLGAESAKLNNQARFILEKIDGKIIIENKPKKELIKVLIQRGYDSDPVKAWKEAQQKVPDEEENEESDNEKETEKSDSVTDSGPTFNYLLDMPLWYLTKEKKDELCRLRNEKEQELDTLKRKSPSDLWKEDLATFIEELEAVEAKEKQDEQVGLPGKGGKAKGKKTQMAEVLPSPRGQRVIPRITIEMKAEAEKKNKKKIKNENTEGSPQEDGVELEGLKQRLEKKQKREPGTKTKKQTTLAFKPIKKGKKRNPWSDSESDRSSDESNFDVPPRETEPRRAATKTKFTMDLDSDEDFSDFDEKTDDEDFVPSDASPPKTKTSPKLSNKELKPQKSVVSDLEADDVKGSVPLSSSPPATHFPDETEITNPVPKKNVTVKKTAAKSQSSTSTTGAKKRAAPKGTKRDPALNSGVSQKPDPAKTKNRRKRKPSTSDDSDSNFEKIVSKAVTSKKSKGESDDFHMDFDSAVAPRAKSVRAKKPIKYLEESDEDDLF", "test": "Affinity precipitation with biotinylated purine analogue 2 from HL-60 nuclear extracts", "type": "binding", "set-up": "endogenous in cells; host or cells: HL-60 nuclear extract", "conditions": "for competition of the interaction of biotinylated purine analogue 2 with topoisomerase II alpha: 1 μM biotinylated analogue 2, competitor in excess (10 μM), QAP 1 also at equimolar concentration", "procedure": "as §1"}, "topoisomerase II alpha [3]": {"target": "T2, topoisomerase II alpha", "test": "DNA-dependent ATPase assay (malachite green)", "type": "biochemical", "set-up": "screened in an ATPase assay using purified full length tagged human topoisomerase II alpha; made in house; host or cells: Sf21 insect cells, baculovirus (pFastBac1)", "procedure": "DNA-dependent ATP hydrolysis of human topoisomerase II α was monitored by measuring the production of inorganic phosphate using acidic molybdate and malachite green. Specific ATPase activity of every batch was tested in a time-course to determine optimal incubation times and enzyme concentrations within the linear range of the assay. Reactions thus contained 10 – 40 nM topoisomerase II (dimer concentration) in reaction buffer (10 mM Tris HCl pH 7.5, 175 mM KCl, 0.1 mM EDTA, 5 mM MgCl2, 2 mM DTT, 2.5% glycerol and 1.7 nM supercoiled pUC18). The specific activity of the human topoisomerase II α enzyme measured in the ATPase assay was 0.24 μmol PO4·min^-1·mg^-1. […] Compounds at the indicated concentrations were added as serial dilutions prepared in DMSO and preincubated for 10 minutes at 37°C on an orbital shaker. Reactions were started by the addition of 400 μM ATP (Sigma, catalog number A2383) and allowed to proceed for 30 minutes. Reactions were terminated by the addition of 200 μl malachite green reagent and the OD was read immediately at 630 nm on a SpectraMax Plus microtiter plate reader using SoftMax Pro software (Molecular Devices). For kinetic analysis, reactions were carried out in duplicate as described above either in the presence of vehicle (DMSO) or QAP 1. Following a preincubation for 5 minutes, ATP was added at the indicated concentrations to start the reactions, which were allowed to proceed for 17 minutes before stopping and reading as above. From these values the OD values obtained at each respective ATP concentration without enzyme were subtracted for background correction. […] A compromise was found by carrying out the competition experiments with a single concentration of the inhibitor that gave a good inhibition of enzyme activity while keeping a measurable signal. The equations used to fit these experiments are: […]\nEach competition experiment was fitted (Grafit version 5.04 – Erithacus Software) with these 3 equations and the models that gave unrealistic inhibition constants (above 10 mM) and/or large standard errors (similar to the value of the fitted parameter) were rejected. Then, the F-test was carried out to identify the best fitting model. An alternative method was used to determine the mode of action of the inhibitor. Dose-response experiments were carried out at different ATP concentrations and the corresponding IC50s determined. According to the Cheng-Prusoff equation for linear competitive inhibition: […]\nThe IC50 of a competitive inhibitive inhibitor should increase in a linear fashion with the concentration of ATP. The measured IC50s were then plotted in function of the ATP concentrations and linear regression analyses were carried out. […] Mean Km and Vmax values were calculated from two independent experiments."}, "[4]": {"conditions": "1 μM biotinylated compound, HL-60 nuclear extracts"}}}
{"smiles": "C=CCNC1=C2C[C@@H](C)C[C@H](OC)[C@H](O)[C@@H](C)/C=C(\\C)[C@H](OC(N)=O)[C@@H](OC)/C=C\\C=C(/C)C(=O)NC(=CC1=O)C2=O", "note": "[17-AAG, reference compound]", "values": [{"measurement": "sensitivity of BRCA1 mutant versus BRCA1 reconstituted HCC1937 cells", "setting": "[1]", "value": "to a similar extent"}]}
{"smiles": "CCc1nc2c(NC(C)(C)C)nc(Nc3ccc4nc(OCCN5CCN(C(=O)CCOCCOCCOCCNC(=O)CCCC[C@@H]6SC[C@@H]7NC(=O)N[C@@H]76)CC5)sc4c3)nc2[nH]1", "note": "[purine analogue 2]", "values": [{"measurement": "pull down of topoisomerase II beta by biotinylated compound", "setting": "topoisomerase II beta; [4]", "value": "pull down"}, {"measurement": "pull down of topoisomerase II alpha by biotinylated compound", "setting": "topoisomerase II alpha [2]; [4]", "value": "pull down"}]}
{"smiles": "CCc1nc2c(NC(C)(C)C)nc(Nc3ccc4ncsc4c3)nc2[nH]1", "note": "[purine analogue 3]", "values": [{"measurement": "competition of the interaction of biotinylated purine analogue 2 with topoisomerase II beta", "setting": "topoisomerase II beta", "value": "lost"}, {"measurement": "competition of the interaction of biotinylated purine analogue 2 with topoisomerase II alpha", "setting": "topoisomerase II alpha [2]", "value": "lost"}, {"measurement": "IC50", "setting": "topoisomerase II alpha [3]; full length tagged human topoisomerase II alpha, 400 μM ATP", "value": "0.432 ± 0.03", "unit": "µM"}]}
{"smiles": "CCc1nc2c(N3CCSCC3)nc(Nc3ccc4ncsc4c3)nc2[nH]1", "note": "[purine analogue 4]", "values": [{"measurement": "competition of the interaction of biotinylated purine analogue 2 with topoisomerase II beta", "setting": "topoisomerase II beta", "value": "not"}, {"measurement": "competition of the interaction of biotinylated purine analogue 2 with topoisomerase II alpha", "setting": "topoisomerase II alpha [2]", "value": "not"}, {"measurement": "activity in the ATPase assays", "setting": "topoisomerase II alpha [3]; result in words", "value": "inactive"}]}
